The target in this assay is T1, M1 muscarinic acetylcholine receptor (M1 mAChR) (Homo sapiens, UniProt P11229).
T1 sequence (P11229 1-460): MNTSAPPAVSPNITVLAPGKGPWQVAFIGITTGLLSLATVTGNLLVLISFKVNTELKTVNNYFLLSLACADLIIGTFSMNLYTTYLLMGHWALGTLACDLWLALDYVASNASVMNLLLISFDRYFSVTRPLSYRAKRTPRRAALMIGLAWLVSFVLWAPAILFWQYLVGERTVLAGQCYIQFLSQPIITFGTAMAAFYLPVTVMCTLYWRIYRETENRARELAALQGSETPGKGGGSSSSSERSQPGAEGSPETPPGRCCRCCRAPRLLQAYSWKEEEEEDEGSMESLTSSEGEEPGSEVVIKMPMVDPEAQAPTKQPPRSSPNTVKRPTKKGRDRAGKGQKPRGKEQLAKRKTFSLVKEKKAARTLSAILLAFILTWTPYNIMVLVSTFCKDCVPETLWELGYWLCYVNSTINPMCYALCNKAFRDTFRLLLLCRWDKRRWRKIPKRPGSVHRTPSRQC
The assay is described as follows: intracellular calcium mobilization in M1-CHO cells. Format: cell-based.

pEC50: −log10 of the molar value.

A word on the pEC50: it is the negative decadic logarithm of the EC50, by convention in mol/L.

As to `CCCCC1CCN(CCCN2C(=O)COc3cc(F)ccc32)CC1` [AC260584], the pEC50 is 6.84.

(Values after publication PMC2936488 (ACS chemical neuroscience, 2010).)
